Laboratory results reported in patent US20260285853A1, “COMPOUNDS AND METHODS FOR MODULATING SPLICING” (REMIX THERAPEUTICS INC., priority 2023, published 2026).
Like-named read-outs stand apart in the source and are kept apart here.

Legend:
Type in all cases: cell-based
HTT mRNA [1] = experiment: Splicing RT-qPCR assay (THP), Table 2A
MYB mRNA [2] = experiment: Splicing RT-qPCR assay (THP), Table 2A
HTT mRNA [3] = experiment: Gene panel canonical junction qPCR assay, decrease in CJ mRNA, Table 3
Procedure, shortened: (§1)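 Eleven-point dose responses from 10 uM final, 24 h, DMSO ≤0.25%, in A673 or K562 cells. Relative quantification by 2^(−ΔΔCt) against housekeeper and vehicle was converted to percent response over fixed ΔCt windows and fitted to yield IC50.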

MYB mRNA [4] = experiment: as above
Procedure, shortened: as §1

SMN2 mRNA = experiment: as above; details: decrease in canonical junction (CJ) mRNA, gene panel qPCR, Table 3
Procedure, shortened: as §1

[5] = tested on: SH-SY5Y (human neuroblastoma) cells; experiment: Cell viability, Cell Titer Glo 2.0 assay; details: read-out: Viability SHSY5Y.3 GI50
Procedure, shortened: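 Following a 72 h incubation (37 °C, 5% CO2, 0.1% DMSO final), compound toxicity toward SH-SY5Y cells was quantified by CellTiter-Glo 2.0.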

[6] = Table 2A (THP), AJ mRNA increase, read-out: HTT AJ (increase in alternative junction mRNA, AC50)
[7] = Table 2A (THP), CJ mRNA decrease, read-out: HTT CJ (decrease in canonical junction mRNA, IC50)
[8] = Table 2A (THP), AJ mRNA increase, read-out: MYB AJ (increase in alternative junction mRNA, AC50)
[9] = Table 2A (THP), CJ mRNA decrease, read-out: MYB CJ (decrease in canonical junction mRNA, IC50)
[10] = decrease in canonical junction (CJ) mRNA, gene panel qPCR, Table 3
[11] = Table 2A, THP, HTT alternative junction (AJ) mRNA, read-out: HTT AJ (AC50, increase in alternative junction mRNA)
[12] = Table 2A, THP, HTT canonical junction (CJ) mRNA, read-out: HTT CJ (IC50, decrease in canonical junction mRNA)
[13] = Table 2A, THP, MYB alternative junction (AJ) mRNA, read-out: MYB AJ (AC50, increase in alternative junction mRNA)
[14] = Table 2A, THP, MYB canonical junction (CJ) mRNA, read-out: MYB CJ (IC50, decrease in canonical junction mRNA)
[15] = decrease in CJ mRNA levels, canonical junction qPCR, gene panel

## Cc1cn2cc(NC(=O)c3ccc(N4CC(CNC5CC5)C4)c4cn(C)nc34)cc(F)c2n1 [Compound 298, 4-[3-[(cyclopropylamino)-methyl]azetidin-1-yl]-N-(8-fluoro-2-methylimidazo[1,2-a]pyridin-6-yl)-2-methylindazole-7-carboxamide]
HTT mRNA [1]; [6]
  AC50: 1 to 10 µM
HTT mRNA [1]; [7]
  IC50: 1 to 10 µM
MYB mRNA [2]; [8]
  AC50: 0.1 to 1 µM
MYB mRNA [2]; [9]
  IC50: 0.1 to 1 µM
HTT mRNA [3]; [10]
  IC50: 1 to 10 µM
MYB mRNA [4]; [10]
  IC50: 0.1 to 1 µM
SMN2 mRNA
  IC50: < 0.1 µM
[5]
  GI50: 1 to 10 µM

## CCNC1CCN(c2cc(F)c(C(=O)Nc3cc(F)c4nc(C)n(C)c4c3)c3nn(C)cc23)CC1 [Compound 299, 4-[4-(ethylamino)-1-piperidyl]-6-fluoro-N-(7-fluoro-2,3-dimethyl-benzimidazol-5-yl)-2-methyl-indazole-7-carboxamide]
HTT mRNA [1]; [6]
  AC50: > 10 µM
HTT mRNA [1]; [7]
  IC50: > 10 µM
MYB mRNA [2]; [8]
  AC50: > 10 µM
MYB mRNA [2]; [9]
  IC50: > 10 µM
HTT mRNA [3]; [10]
  IC50: > 10 µM
MYB mRNA [4]; [10]
  IC50: > 10 µM
SMN2 mRNA
  IC50: > 10 µM
[5]
  GI50: > 10 µM

## CCNC1CCN(c2cc(F)c(C(=O)Nc3cc(F)c4cn(C)nc4c3)c3nn(C)cc23)CC1 [Compound 300, 4-[4-(ethylamino)-1-piperidyl]-6-fluoro-N-(4-fluoro-2-methylindazol-6-yl)-2-methyl-indazole-7-carboxamide]
HTT mRNA [1]; [6]
  AC50: > 10 µM
HTT mRNA [1]; [7]
  IC50: > 10 µM
MYB mRNA [2]; [8]
  AC50: > 10 µM
MYB mRNA [2]; [9]
  IC50: > 10 µM
HTT mRNA [3]; [10]
  IC50: > 10 µM
MYB mRNA [4]; [10]
  IC50: > 10 µM
SMN2 mRNA
  IC50: 1 to 10 µM
[5]
  GI50: 1 to 10 µM

## CCNC1CCN(c2cc(F)c(C(=O)Nc3nc4c(C)nc(C)cn4n3)c3nn(C)cc23)CC1 [Compound 301, N-(6,8-dimethyl-[1,2,4]triazolo[1,5-a]pyrazin-2-yl)-4-(4-(ethylamino)piperidin-1-yl)-6-fluoro-2-methyl-2H-indazole-7-carboxamide 2,2,2-trifluoroacetate]
HTT mRNA [1]; [6]
  AC50: > 10 µM
HTT mRNA [1]; [7]
  IC50: 1 to 10 µM
MYB mRNA [2]; [8]
  AC50: > 10 µM
MYB mRNA [2]; [9]
  IC50: > 10 µM
HTT mRNA [3]; [10]
  IC50: 1 to 10 µM
MYB mRNA [4]; [10]
  IC50: > 10 µM
SMN2 mRNA
  IC50: 1 to 10 µM
[5]
  GI50: > 10 µM

## Cn1cc2cc(NC(=O)c3ccc(N4CCC(NC5CC5)CC4)c4cn(C)nc34)cc(CNc3ncco3)c2n1 [Compound 880]
HTT mRNA [1]; [11]
  AC50: > 10 µM
HTT mRNA [1]; [12]
  IC50: > 10 µM
MYB mRNA [2]; [13]
  AC50: 1 to 10 µM
MYB mRNA [2]; [14]
  IC50: 1 to 10 µM
HTT mRNA [3]; [15]
  IC50: > 10 µM
MYB mRNA [4]; [15]
  IC50: 1 to 10 µM
[5]
  GI50: 1 to 10 µM

## Cn1cc2cc(NC(=O)c3ccc(N4CCC(NC5CC5)CC4)c4cn(C)nc34)cc(CNc3nccs3)c2n1 [Compound 881]
HTT mRNA [1]; [11]
  AC50: > 10 µM
HTT mRNA [1]; [12]
  IC50: 1 to 10 µM
MYB mRNA [2]; [13]
  AC50: 0.1 to 1 µM
MYB mRNA [2]; [14]
  IC50: 1 to 10 µM
HTT mRNA [3]; [15]
  IC50: 1 to 10 µM
MYB mRNA [4]; [15]
  IC50: 1 to 10 µM
[5]
  GI50: 1 to 10 µM

## Cn1cc2cc(NC(=O)c3ccc(N4CCC(NC5CC5)CC4)c4cn(C)nc34)cc(CNc3cncs3)c2n1 [Compound 882]
HTT mRNA [1]; [11]
  AC50: > 10 µM
HTT mRNA [1]; [12]
  IC50: > 10 µM
MYB mRNA [2]; [13]
  AC50: 0.1 to 1 µM
MYB mRNA [2]; [14]
  IC50: 0.1 to 1 µM
HTT mRNA [3]; [15]
  IC50: > 10 µM
MYB mRNA [4]; [15]
  IC50: 0.1 to 1 µM
[5]
  GI50: 1 to 10 µM

## Cn1cc2cc(NC(=O)c3ccc(N4CCC(NC5CC5)CC4)c4cn(C)nc34)cc(CNc3cn[nH]c3)c2n1 [Compound 883]
HTT mRNA [1]; [11]
  AC50: > 10 µM
HTT mRNA [1]; [12]
  IC50: > 10 µM
MYB mRNA [2]; [13]
  AC50: 1 to 10 µM
MYB mRNA [2]; [14]
  IC50: 1 to 10 µM
HTT mRNA [3]; [15]
  IC50: > 10 µM
MYB mRNA [4]; [15]
  IC50: 1 to 10 µM
[5]
  GI50: > 10 µM

## CCNC1CCN(c2ccc(C(=O)Nc3cn4cc(C)nc(CNS(C)(=O)=O)c4n3)c3nn(C)cc23)CC1 [Compound 884]
HTT mRNA [1]; [11]
  AC50: > 10 µM
HTT mRNA [1]; [12]
  IC50: > 10 µM
MYB mRNA [2]; [13]
  AC50: 1 to 10 µM
MYB mRNA [2]; [14]
  IC50: 1 to 10 µM
HTT mRNA [3]; [15]
  IC50: > 10 µM
MYB mRNA [4]; [15]
  IC50: 1 to 10 µM
[5]
  GI50: > 10 µM

## Cc1cn2cc(NC(=O)c3ccc(N4CC5CCC(C4)N5)c4cn(C)nc34)nc2c(CNS(C)(=O)=O)n1 [Compound 885, 4-(3,8-diazabicyclo[3.2.1]octan-3-yl)-N-[8-(methanesulfonamidomethyl)-6-methyl-imidazo[1,2-a]pyrazin-2-yl]-2-methyl-indazole-7-carboxamide]
HTT mRNA [1]; [11]
  AC50: 1 to 10 µM
HTT mRNA [1]; [12]
  IC50: 1 to 10 µM
MYB mRNA [2]; [13]
  AC50: 1 to 10 µM
MYB mRNA [2]; [14]
  IC50: 1 to 10 µM
HTT mRNA [3]; [15]
  IC50: 1 to 10 µM
MYB mRNA [4]; [15]
  IC50: 1 to 10 µM
[5]
  GI50: 1 to 10 µM
